Results taken from patent US20260109707A1, “HETEROBIFUNCTIONAL COMPOUNDS AND METHODS OF TREATING DISEASE” (Halda Therapeutics OpCo. Inc., priority 2022, published 2026).
Like-named read-outs stand apart in the source and are kept apart here.

Assays:
VCaP cells = assay: Cellular growth inhibition assay for VCaP cells (CellTiter-Glo, 72 hours); assay type: cell-based, human
Method: VCaP cells were purchased from American Type Cell Culture (ATCC Cat #CRL2876) and then seeded on poly-D-lysine coated, black clear-bottom 384-well plates at 5000/well in 25 μL Dulbecco's Modified Eagle Medium (DMEM) supplemented with 10% w/w Fetal bovine serum (FBS) and 1% w/w Pen-Strep. Pen-Strep is a commercially available mixture of penicillin G and streptomycin, which is used in mammalian cell culture media to prevent bacterial contamination. Dulbecco's Modified Eagle Medium (DMEM) supplemented with 10% w/w fetal bovine serum (FBS) and 1% w/w Pen-Strep is herein referred to as Treatment Medium. Following seeding of cells in the plates, the plates were spun at 300×g for 30 seconds, then equilibrated to room temperature for 30 minutes, and then deposited in a humidified tissue culture incubator maintained at 37° C. with 5% C0-2.
At 24 hours after seeding of the cells, dilutions of test compound were prepared in DMSO and dissolved in Treatment Medium, to achieve a final DMSO concentration of 0.5% w/w, thereby providing the Test Compound Solution. A 25 μL aliquot of the Test Compound Solution was added to cells in the well plates. An equal volume of a solution containing DMSO and Treatment Medium was used as a negative control. Following treatment of cells with Test Compound Solution or said equal volume of a solution containing DMSO and Treatment Medium, the plates were spun at 300×g for 30 seconds, and then left in an incubator for 72 hours.
At the end of the treatment duration, cell viability was quantified with CellTiter-Glo 2.0 reagent (Promega Cat #G9243). For this purpose, plates were equilibrated to room temperature for 30 minutes, and then 25 μL of CellTiter-Glo 2.0 reagent was added to cells in the plate wells. Plates were then agitated on a shaker for two minutes at 500 rpm and subsequently incubated at room temperature for 10 minutes. Following incubation, the plates were spun at 3000×g for 30 seconds, then sealed with an optical adhesive cover, and luminescence readings were measured with an EnVision Plate Reader.
Data was normalized using zero luminescence for baseline. A four-parameter non-linear regression curve fit was applied to dose-response data in GraphPad Prism data analysis software to determine the half-maximal growth inhibitory concentration (GI50) for each test compound.

[1] = system: T-Rex 293 cell line SC3 cells having increased expression of androgen receptor protein due to exposure to doxycycline; assay: Cellular growth inhibition assay, T-Rex 293 SC3 cells with doxycycline (CellTiter-Glo, 72 hours); assay type: cell-based; details: T-Rex 293 SC3 cells with increased androgen receptor expression due to doxycycline (10 ng/mL)
How it was run: (§1)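 Growth inhibition is measured in an inducible AR-expressing T-Rex 293 clone, SC3, cultured with or without 10 ng/mL doxycycline in hormone-depleted medium. Test compounds are applied for 72 hours. GI50 values derive from CellTiter-Glo 2.0 signal fitted by four-parameter regression.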

[2] = system: T-Rex 293 cell line SC3 cells lacking increased expression of androgen receptor protein; assay: Cellular growth inhibition assay, T-Rex 293 SC3 cells without doxycycline (CellTiter-Glo, 72 hours); assay type: cell-based; details: T-Rex 293 cell line SC3 cells not exposed to doxycycline (lacking increased androgen receptor expression)
How it was run: as §1

| Structure (SMILES) | GI50 (VCaP cells) | GI50 ([1]; 72 h) | GI50 [2] | GI50 [1] | GI50 (VCaP cells; Homo sapiens, VCaP, 72 h) | GI50 ([2]; 72 h) |
| --- | --- | --- | --- | --- | --- | --- |
| Cc1sc2c(c1C)C(c1ccc(N3CC(CC4CCCN(c5ccc(C(=O)N[C@H]6CC[C@H](Oc7ccc(C#N)c(Cl)c7)CC6)nn5)C4)C3)cc1)=NC1(CC1)c1nnc(C)n1-2 (stereo partly drawn) [I-598] | < 500 nM | < 500 nM | < 500 nM |  |  |  |
| Cc1sc2c(c1C)C(c1ccc(OCC3CC4(CCCN(c5ccc(C(=O)N[C@H]6CC[C@H](Oc7ccc(C#N)c(Cl)c7)CC6)nn5)C4)C3)cc1)=NC1(CC1)c1nnc(C)n1-2 (stereo partly drawn) [I-471] | 1500 to 3000 nM |  | > 3000 nM | < 500 nM |  |  |
| Cc1sc2c(c1C)C(c1ccc(N3CCC(Cc4ccc(C(=O)N[C@H]5CC[C@H](Oc6ccc(C#N)c(Cl)c6)CC5)nn4)CC3)cc1)=N[C@@H](C)c1nnc(C)n1-2 [I-606] |  | < 500 nM |  |  | > 3000 nM | > 3000 nM |
| Cc1sc2c(c1C)C(c1cccc(OC3CC4(CCN(c5ccc(C(=O)N[C@H]6CC[C@H](Oc7ccc(C#N)c(Cl)c7)CC6)nn5)CC4)C3)c1)=N[C@@H](C)c1nnc(C)n1-2 [I-648] |  | < 500 nM |  |  | < 500 nM | 500 to 1500 nM |
| Cc1sc2c(c1C)C(c1ccc(OC3CCC4(CCCN(c5ccc(C(=O)N[C@H]6CC[C@H](Oc7ccc(C#N)c(Cl)c7)CC6)nn5)C4)C3)cc1)=NC1(CC1)c1nnc(C)n1-2 (stereo partly drawn) [I-524] | > 3000 nM |  | > 3000 nM | < 500 nM |  |  |
| Cc1sc2c(c1C)C(c1ccc(N3C[C@@]4(C)CN(c5ccc(C(=O)N[C@H]6CC[C@H](Oc7ccc(C#N)c(Cl)c7)CC6)nn5)C[C@@]4(C)C3)cc1)=N[C@@H](Cc1ncco1)c1nnc(C)n1-2 [I-826, 6-[(3aS,6aR)-3a,6a-dimethyl-2-[4-[(9S)-4,5,13-trimethyl-9-(oxazol-2-ylmethyl)-3-thia-1,8,11,12-tetrazatricyclo[8.3.0.02,6]trideca-2(6),4,7,10,12-pentaen-7-yl]phenyl]-1,3,4,6-tetrahydropyrrolo[3,4-c]pyrrol-5-yl]-N-[4-(3-chloro-4-cyano-phenoxy)cyclohexyl]pyridazine-3-carboxamide] |  | < 500 nM |  |  | < 500 nM | < 500 nM |
| Cc1sc2c(c1C)C(c1ccc(N3CCC(N4CCN(c5ncc(C(=O)N[C@H]6CC[C@H](Oc7ccc(C#N)c(Cl)c7)CC6)cn5)CC4)CC3)cc1)=NC(Cc1ncco1)c1nnc(C)n1-2 (stereo partly drawn) [I-792] |  | < 500 nM |  |  | < 500 nM | < 500 nM |
| Cc1sc2c(c1C)C(c1cccc(CN3CCC4(CC3)CCN(c3ccc(C(=O)N[C@H]5CC[C@H](Oc6ccc(C#N)c(Cl)c6)CC5)nn3)C4)c1)=N[C@@H](C)c1nnc(C)n1-2 [I-688] |  | < 500 nM |  |  | < 500 nM | 500 to 1500 nM |
| Cc1sc2c(c1C)C(c1ccc(CC3CCC4(CCCN(c5ccc(C(=O)N[C@H]6CC[C@H](Oc7ccc(C#N)c(Cl)c7)CC6)nn5)C4)C3)cn1)=N[C@@H](C)c1nnc(C)n1-2 (stereo partly drawn) [I-623] | 500 to 1500 nM |  | 500 to 1500 nM | < 500 nM |  |  |
| CC[C@@H]1N=C(c2ccc(C3CCC4(CCCN(c5ccc(C(=O)N[C@H]6CC[C@H](Oc7ccc(C#N)c(Cl)c7)CC6)nn5)C4)CC3)cc2)c2c(sc(C)c2C)-n2c(C)nnc21 (stereo partly drawn) [I-652] |  | < 500 nM |  |  | < 500 nM | > 3000 nM |
| Cc1sc2c(c1C)C(c1ccc(N3CC(C4CCN(c5ccc(C(=O)N[C@H]6CC[C@H](Oc7ccc(C#N)c(Cl)c7)CC6)nn5)CC4)C3)nc1)=NCc1nnc(C)n1-2 [I-478] |  | < 500 nM |  |  | < 500 nM | > 3000 nM |
| Cc1sc2c(c1C)C(c1ccc(N3CCC(CC4CCN(c5ccc(C(=O)N[C@H]6CC[C@H](Oc7ccc(C#N)c(Cl)c7)CC6)nn5)CC4)CC3)cc1)=NC1(CC1)c1nnc(C)n1-2 [I-492] |  | < 500 nM |  |  | < 500 nM | > 3000 nM |
| Cc1sc2c(c1C)C(c1ccc(N3C4CCC3CN(c3ncc(C(=O)N[C@H]5CC[C@H](Oc6ccc(C#N)c(Cl)c6)CC5)cn3)C4)cc1)=NC(Cc1ncco1)c1nnc(C)n1-2 (stereo partly drawn) [I-785] |  |  | 500 to 1500 nM | < 500 nM | > 3000 nM |  |
| Cc1sc2c(c1C)C(c1ccc(CCC3CC4(CCCN(c5ccc(C(=O)N[C@H]6CC[C@H](Oc7ccc(C#N)c(Cl)c7)CC6)nn5)C4)C3)cn1)N[C@@H](Cc1ncco1)c1nnc(C)n1-2 (stereo partly drawn) [I-643] |  | < 500 nM |  |  | < 500 nM | > 3000 nM |
| COC[C@@H]1N=C(c2ccc(N3CCC4(CC3)CCN(c3ccc(C(=O)N[C@H]5CC[C@H](Oc6ccc(C#N)c(Cl)c6)CC5)nn3)C4)cc2)c2c(sc(C)c2C)-n2c(C)nnc21 [I-566] |  | < 500 nM |  |  | < 500 nM | < 500 nM |
| CCNC(=O)C[C@@H]1N=C(c2ccc(N3CC(CC4CN(c5ccc(C(=O)N[C@H]6CC[C@H](Oc7ccc(C#N)c(Cl)c7)CC6)nn5)C4)C3)cc2)c2c(sc(C)c2C)-n2c(C)nnc21 [I-66] |  | < 500 nM |  |  | < 500 nM | 500 to 1500 nM |
| Cc1sc2c(c1C)C(c1ccc(C3CCC4(CCCN(c5ccc(C(=O)N[C@H]6CC[C@H](Oc7ccc(C#N)c(Cl)c7)CC6)nn5)C4)CC3)cc1)=NC(C(F)(F)F)c1nnc(C)n1-2 (stereo partly drawn) [I-694] |  | > 3000 nM |  |  | > 3000 nM | > 3000 nM |
| Cc1sc2c(c1C)C(c1ccc(C3CCC4(CCN(c5ccc(C(=O)N[C@H]6CC[C@H](Oc7ccc(C#N)c(Cl)c7)CC6)nn5)CC4)C3)cc1)=N[C@@H](C)c1nnc(C)n1-2 (stereo partly drawn) [I-496] | < 500 nM | < 500 nM |  |  |  | > 3000 nM |
| Cc1sc2c(c1C)C(c1ccc(N3CCC4(CCN(c5ccc(C(=O)N[C@H]6CC[C@H](Oc7ccc(C#N)c(Cl)c7)CC6)nn5)CC4)C3)cc1)=NC(C(F)(F)F)c1nnc(C)n1-2 (stereo partly drawn) [I-727] | < 500 nM |  | > 3000 nM | > 3000 nM |  |  |
| CC[C@@H]1N=C(c2ccc(N3CCC(CCc4ccc(C(=O)N[C@H]5CC[C@H](Oc6ccc(C#N)c(Cl)c6)CC5)nn4)CC3)cc2)c2c(sc(C)c2C)-n2c(C)nnc21 [I-613] |  | < 500 nM |  |  | < 500 nM | 1500 to 3000 nM |
| Cc1sc2c(c1C)C(c1ccc(N3CCC4(CCN(c5ccc(C(=O)N[C@H]6CC[C@H](Oc7ccc(C#N)c(Cl)c7)CC6)nn5)C4)C3)cc1)=NC1(CC1)c1nnc(C)n1-2 (stereo partly drawn) [I-522] | 500 to 1500 nM |  | < 500 nM | < 500 nM |  |  |
| Cc1sc2c(c1C)C(c1ccc(OCC3CCC4(CCCN(c5ccc(C(=O)N[C@H]6CC[C@H](Oc7ccc(C#N)c(Cl)c7)CC6)nn5)C4)C3)cc1)=N[C@@H](C)c1nnc(C)n1-2 (stereo partly drawn) [I-637] | < 500 nM |  | < 500 nM | < 500 nM |  |  |
| Cc1sc2c(c1C)C(c1ccc(N3CC(C4CCN(c5ccc(C(=O)N[C@H]6CC[C@H](Oc7ccc(C#N)c(Cl)c7)CC6)nn5)CC4)C3)nc1)=N[C@@H](C)c1nnc(C)n1-2 [I-463] |  | < 500 nM |  |  | 500 to 1500 nM | 500 to 1500 nM |
| Cc1sc2c(c1C)C(c1ccc(N3C[C@@H]4CN(c5ccc(C(=O)N[C@H]6CC[C@H](Oc7ccc(C#N)c(Cl)c7)CC6)nn5)C[C@H]4C3)cc1)=NC1(CC1)c1nnc(C)n1-2 [I-664] |  | < 500 nM |  |  | < 500 nM | < 500 nM |
| Cc1sc2c(c1C)C(c1ccc(CC3CCC4(C3)CN(c3ccc(C(=O)N[C@H]5CC[C@H](Oc6ccc(C#N)c(Cl)c6)CC5)nn3)CCO4)cc1)=NC1(CC1)c1nnc(C)n1-2 (stereo partly drawn) [I-527] |  | < 500 nM |  |  | 1500 to 3000 nM | > 3000 nM |
| CC[C@@H]1N=C(c2ccc(C3CCC4(CCN(c5ccc(C(=O)N[C@H]6CC[C@H](Oc7ccc(C#N)c(Cl)c7)CC6)nn5)CC4)C3)cc2)c2c(sc(C)c2C)-n2c(C)nnc21 (stereo partly drawn) [I-574] |  | < 500 nM |  |  | < 500 nM | > 3000 nM |
| Cc1sc2c(c1C)C(c1ccc(CC3CC(CC4CCN(c5ccc(C(=O)N[C@H]6CC[C@H](Oc7ccc(C#N)c(Cl)c7)CC6)nn5)CC4)C3)cc1)=N[C@@H](C)c1nnc(C)n1-2 (stereo partly drawn) [I-629] | < 500 nM |  | > 3000 nM | < 500 nM |  |  |
| Cc1sc2c(c1C)C(c1ccc(N3CCC4(CCN(c5ccc(C(=O)N[C@H]6CC[C@H](Oc7ccc(C#N)c(Cl)c7)CC6)nn5)C4)C3)c(F)c1)=N[C@@H](C)c1nnc(C)n1-2 (stereo partly drawn) [I-745] |  |  | < 500 nM | < 500 nM | < 500 nM |  |
| CC[C@@H]1N=C(c2ccc(C3CCC4(CC3)CCN(c3ccc(C(=O)N[C@H]5CC[C@H](Oc6ccc(C#N)c(Cl)c6)CC5)nn3)C4)cc2)c2c(sc(C)c2C)-n2c(C)nnc21 (single isomer, unassigned) [I-634] | < 500 nM |  | 500 to 1500 nM | < 500 nM |  |  |
